Reference: patent US5677420A, “Phospholipase c-inhibiting peptides” (Kyowa Hakko Kogyo Co., Ltd., priority 1995, dated 1997)
Converted amounts (≈) assume the structure as drawn. Square brackets hold non-standard residues; d marks the D form. Peptide text beside a SMILES is read from it. Aun = NCCCCCCCCCCC(=O)O

Key:
[1] = tested on: Klebsiella pneumoniae ATCC 10031; assay: Antibacterial activity, agar dilution method; format: cell-based; details: medium pH 7.0
Experimental: (§1) The antibacterial activity was determined by the agar dilution method using a medium (pH 7.0) which comprises 3 g/l Bacto-tryptone (Difco Laboratories), 1 g/l meat extract, 1 g/l glucose and 16 g/l agar.

PLC-γ1 = target: T1, PLC-γ1 (Bos taurus, UniProt P08487); assay: PLC-inhibiting activity (release of inositol phosphate from [3H]PIP2); format: biochemical; details: Concentration 123 μM; PLC-γ1 from bovine thymus, 37° C., 10 minutes
T1 construct: A sample of PLC-γ1 was prepared from bovine thymus according to the method described in Y. Honma et al; from tissue; host or cells: bovine thymus
T1 sequence (P08487 1-1291): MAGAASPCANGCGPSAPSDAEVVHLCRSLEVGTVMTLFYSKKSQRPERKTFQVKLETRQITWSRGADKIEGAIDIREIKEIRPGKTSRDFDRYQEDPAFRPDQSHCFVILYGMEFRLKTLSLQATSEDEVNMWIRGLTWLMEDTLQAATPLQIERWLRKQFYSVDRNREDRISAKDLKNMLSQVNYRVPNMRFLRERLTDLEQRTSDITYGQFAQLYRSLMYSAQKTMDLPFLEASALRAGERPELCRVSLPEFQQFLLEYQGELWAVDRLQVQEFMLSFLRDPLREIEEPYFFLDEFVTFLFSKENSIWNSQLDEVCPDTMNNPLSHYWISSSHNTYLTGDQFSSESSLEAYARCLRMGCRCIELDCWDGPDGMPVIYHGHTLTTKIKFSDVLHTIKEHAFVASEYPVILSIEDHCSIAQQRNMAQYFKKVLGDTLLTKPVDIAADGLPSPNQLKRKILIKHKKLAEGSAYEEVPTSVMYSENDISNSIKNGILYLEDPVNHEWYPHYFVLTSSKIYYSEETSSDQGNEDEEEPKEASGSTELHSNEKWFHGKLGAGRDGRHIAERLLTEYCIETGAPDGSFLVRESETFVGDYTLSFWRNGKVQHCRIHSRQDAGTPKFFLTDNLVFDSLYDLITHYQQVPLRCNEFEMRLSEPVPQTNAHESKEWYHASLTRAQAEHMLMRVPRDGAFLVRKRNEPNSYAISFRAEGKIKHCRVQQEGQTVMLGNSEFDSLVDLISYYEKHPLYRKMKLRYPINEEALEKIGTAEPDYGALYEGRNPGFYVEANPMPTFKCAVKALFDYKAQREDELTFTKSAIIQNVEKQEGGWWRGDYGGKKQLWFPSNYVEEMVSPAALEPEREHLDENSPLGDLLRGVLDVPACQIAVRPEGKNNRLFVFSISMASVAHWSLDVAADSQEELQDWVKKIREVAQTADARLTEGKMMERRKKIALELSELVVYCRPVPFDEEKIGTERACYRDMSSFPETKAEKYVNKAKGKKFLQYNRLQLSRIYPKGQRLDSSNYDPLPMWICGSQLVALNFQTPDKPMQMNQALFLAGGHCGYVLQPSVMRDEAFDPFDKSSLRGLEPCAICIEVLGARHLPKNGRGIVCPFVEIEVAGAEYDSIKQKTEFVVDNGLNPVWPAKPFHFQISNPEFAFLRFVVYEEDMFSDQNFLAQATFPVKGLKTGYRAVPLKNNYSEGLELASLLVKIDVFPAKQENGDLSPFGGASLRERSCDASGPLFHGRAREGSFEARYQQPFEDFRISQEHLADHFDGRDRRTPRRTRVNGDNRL
Experimental: PLC-inhibiting activity A sample of PLC-γ1 was prepared from bovine thymus according to the method described in Y. Honma et al., Biochem. J., 269, 13 (1990). A solution having the composition shown in Table 2 below was prepared on ice and was heated to 37° C. to start reaction. After incubation for 10 minutes, 2 ml of a chloroform/methanol mixture (2:1, v/v) was added thereto to stop the reaction. The resulting inositol phosphate was extracted with 0.5 ml of 1N hydrochloric acid. The extract was separated into two liquid phases by centrifugation (2000×g, 3 minutes), and the amount of ^3 H contained in the supernatant (0.7 ml) was measured with a scintillation counter. […] (a) 2-(N-Morpholino)ethanesulfonic acid (b) The peptides and their concentrations in aqueous solutions provided for the test are shown in Table 3. […] The inhibition rate (X) was calculated according to the following equation: X (%)=(A-C)/(B-C)×100 where A is the obtained value of specific radioactivity, B is the value of specific radioactivity obtained when the same amount of water was added instead of the aqueous solution of the test peptide, and C is the value of specific radioactivity obtained when the same amount of water was added instead of the sample and the aqueous solution of the test peptide.

KMS-4 cells = assay: Cell growth-inhibiting activity (BrdU incorporation, cell growth detection kit); format: cell-based; details: Concentration 1 μM, culturing with peptide for 17 hours
Experimental: Cell growth-inhibiting activity The cell growth-inhibiting activity was determined using a cell growth detection kit (Amersham) in the following manner. KMS-4 cells [M. Nanba et al, International Journal of Cancer, 32, 697 (1983)]were suspended in DMEM medium (Nissui Pharmaceutical Co., Ltd.) containing 10% fetal calf serum at a density of 1-2×10^4 cells/ml, and 1 ml of the cell suspension was put into each well of a 24-well plate (Corning Inc.). The cells were cultured in a CO2 incubator (37° C., 5% CO2) for 2 days. Then, the medium was replaced with a fresh DMEM medium containing 10% fetal calf serum, and the test peptide was added thereto, followed by culturing for 17 hours. […] The number of cells which incorporated BrdU and the total number of cells within one field of vision of a microscope (approximately 200 cells) were determined, and the proportion (%) of stained cells per field of vision was calculated. […] The cell growth-inhibiting activity was calculated in the following manner. That is, the cell growth inhibition rate was calculated according to the following equation: X (%)=(1-B/A)×100 where A is the growth activity when no peptide was added, and B is the growth activity when the test peptide was added.

[2] = tested on: Proteus vulgaris ATCC 6897; assay: Antibacterial activity, agar dilution method; format: cell-based; details: medium pH 7.0
Experimental: as §1

[3] = tested on: Pseudomonas aeruginosa Bin H No. 1; assay: Antibacterial activity, agar dilution method; format: cell-based; details: medium pH 7.0
Experimental: as §1

[4] = tested on: Bacillus subtilis No. 10707; assay: Antibacterial activity, agar dilution method; format: cell-based; details: medium pH 7.0
Experimental: as §1

`CSCC[C@H](NC(=O)[C@H](CCCCN)NC(=O)[C@H](CCCNC(=N)N)NC(=O)[C@H](Cc1ccc(O)cc1)NC(=O)[C@H](CC(C)C)NC(C)=O)C(=O)N[C@@H](CCCNC(=N)N)C(=O)N[C@@H](CC(C)C)C(=O)N[C@@H](CCCNC(=N)N)C(=O)N[C@@H](Cc1ccc(O)cc1)C(=O)N1CCC[C@H]1C(=O)N[C@H](C(=O)NCCCCCCCCCCC(N)=O)C(C)C` [Compound (I-6), Ac-Leu-Tyr-Arg-Lys-Met-Arg-Leu-Arg-Tyr-Pro-Val-Aud-NH2] (Ac-LYRKMRLRYPV[Aun]-NH2) was tested, and the “MIC (μg/ml) KP” value [1] was 43 µg/mL (≈ 25 µM).
“Ac-Leu-Tyr-Arg-Lys-Met-Arg-Leu-Arg-Tyr-Pro-Val-Abu-NH2 (Ac-LYRKMRLRYPVX-NH2; not fully specified (residue 12); printed as $CH_3CO$—Leu—Tyr—Arg—Lys—Met—Arg—Leu—Arg—Tyr—Pro—Val—NH—$(CH_2)_3CONH_2$) [Compound (I-1)]” was tested, and the “Inhibition rate (%)” value (PLC-γ1) was 85%, the “Inhibition rate (%) (cell growth)” value (KMS-4 cells) was 10% and the “MIC (μg/ml) PV” value [2] was 83 µg/mL. The “MIC (μg/ml) PA” value [3] was 167 µg/mL and the “MIC (μg/ml) BS” value [4] was 167 µg/mL.
